Consider 15 compounds from patent US6858739B2, “Indole and benzimidazole 15-lipoxygenase inhibitors” (Warner-Lambert Company, priority 2000, dated 2005).

The target of series [1] is T1, rabbit reticulocyte 15-LO (Oryctolagus cuniculus, UniProt P12530).
T1 construct: one utilizing rabbit reticulocyte 15-LO; from tissue; host or cells: rabbit reticulocytes
T1 sequence (P12530 1-663): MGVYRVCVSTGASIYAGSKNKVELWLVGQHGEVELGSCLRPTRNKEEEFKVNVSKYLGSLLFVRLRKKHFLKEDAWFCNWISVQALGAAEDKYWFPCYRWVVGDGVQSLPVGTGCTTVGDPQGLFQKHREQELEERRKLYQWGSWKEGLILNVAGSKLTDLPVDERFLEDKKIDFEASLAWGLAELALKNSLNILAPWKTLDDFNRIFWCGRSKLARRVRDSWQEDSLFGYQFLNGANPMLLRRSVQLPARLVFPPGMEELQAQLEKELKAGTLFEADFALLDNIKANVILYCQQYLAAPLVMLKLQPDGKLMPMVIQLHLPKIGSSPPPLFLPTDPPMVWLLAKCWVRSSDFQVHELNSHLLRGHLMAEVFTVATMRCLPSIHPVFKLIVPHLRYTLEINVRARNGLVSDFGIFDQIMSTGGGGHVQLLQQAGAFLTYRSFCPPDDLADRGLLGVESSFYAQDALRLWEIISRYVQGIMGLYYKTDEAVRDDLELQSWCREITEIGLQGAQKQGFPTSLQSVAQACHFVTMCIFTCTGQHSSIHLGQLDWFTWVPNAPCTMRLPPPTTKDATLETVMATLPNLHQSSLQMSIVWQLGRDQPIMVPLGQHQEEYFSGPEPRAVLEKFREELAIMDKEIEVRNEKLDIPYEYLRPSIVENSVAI
Kind of series: 15-LO inhibition, rabbit reticulocyte enzyme (HPLC method of Auerbach et al.). The format is biochemical. The note with it: linoleic acid as substrate, incubation at 4° C. for 10 minutes. Here is the method: (§1) The compounds described above are effective inhibitors of 15-LO when evaluated in standard assays routinely utilized to measure 15-LO activity. Specifically, representative compounds were evaluated by the methods described by Auerbach et al., Analytical Biochemistry, 1992;201:375-380. Two in vitro assays were utilized, one utilizing rabbit reticulocyte 15-LO, the other using human 15-LO. Both used linoleic acid as substrate, to enzymatically produce a peroxide oxidation product known as 13(S)-HPODE. N-Benzoyl leucomethylene blue was utilized as a colorimetric reagent for detection and quantification of the peroxide formation. Also, HPLC was utilized to quantify the oxidation following incubation at 4° C. for 10 minutes.
(§2) Data Column 1 gives the concentration of compound required to inhibit 50% of the activity of 15-LO (IC50) when measured by the HPLC method of Auerbach et al. using rabbit enzymes, and data Column 2 gives data from human 15-LO enzyme.

The target of a further series is T2, human 15-LO (Homo sapiens, UniProt P16050).
T2 sequence (P16050 1-662): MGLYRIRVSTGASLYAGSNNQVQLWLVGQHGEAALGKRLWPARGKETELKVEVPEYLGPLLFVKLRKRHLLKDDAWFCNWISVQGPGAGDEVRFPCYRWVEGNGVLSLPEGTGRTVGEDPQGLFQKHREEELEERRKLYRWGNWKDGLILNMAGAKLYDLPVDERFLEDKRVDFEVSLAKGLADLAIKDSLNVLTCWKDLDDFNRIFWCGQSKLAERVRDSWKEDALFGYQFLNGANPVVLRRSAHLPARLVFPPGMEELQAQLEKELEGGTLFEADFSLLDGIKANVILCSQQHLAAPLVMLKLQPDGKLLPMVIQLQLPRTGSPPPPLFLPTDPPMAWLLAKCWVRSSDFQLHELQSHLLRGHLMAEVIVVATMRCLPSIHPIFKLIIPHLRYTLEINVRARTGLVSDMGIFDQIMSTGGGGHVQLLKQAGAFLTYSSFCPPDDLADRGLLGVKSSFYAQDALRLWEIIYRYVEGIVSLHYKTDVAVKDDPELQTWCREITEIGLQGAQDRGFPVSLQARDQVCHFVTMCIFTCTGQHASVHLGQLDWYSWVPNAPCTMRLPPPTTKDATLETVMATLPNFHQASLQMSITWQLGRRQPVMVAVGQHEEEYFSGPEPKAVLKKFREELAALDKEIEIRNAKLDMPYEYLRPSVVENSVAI
Put plainly: 15-LO inhibition, human enzyme. It counts as biochemical. The note with it: linoleic acid as substrate. As to the method: as §1, §2

`COc1ccc(-c2cc3cc(Cl)c(Cl)cc3[nH]2)cc1N` [Example 18, 5-(5,6-Dichloro-1H-indol-2-yl)-2-methoxy-phenylamine]: the melting point was in the range of 235 to 237 °C. For the same compound, in series [1], the concentration for half-maximal inhibition (IC50) was determined as 37 nM. Also, at human 15-LO, 359 nM corresponded to half-maximal inhibition (IC50).
The like results for `COc1ccc(-c2cc3cc(F)c(F)cc3[nH]2)cc1N` [Example 3, 5-(5,6-Difluoro-1H-indol-2-yl)-2-methoxy-phenylamine] were, in that order, 210 to 211 °C, 27 nM and 53 nM.
`COc1ccc(-c2cc3cc(F)c(F)cc3[nH]2)cc1NC(=S)Nc1ccc(C(=O)O)cc1` [Example 5, 4-{3-[5-(5,6-Difluoro-1H-indol-2-yl)-2-methoxy-phenyl]-thioureido}-benzoic acid] registered a melting point of 201 to 203 °C. This compound came in with a half-maximal inhibitory concentration (IC50) in series [1] of 11 nM. Further, on human 15-LO, the IC50 was determined as 13 nM.
The compound `COc1ccc(-c2cc3cc(F)c(F)cc3[nH]2)cc1NCc1ccc(C#N)cc1` [Example 50, [5-(5,6-Difluoro-1H-indol-2-yl)-2-methoxy-phenyl]-(4-cyano-benzyl)-amine] registered a melting point of 158 to 159 °C. This compound came in with a half-maximal inhibitory concentration (IC50) in series [1] of 74 nM. The IC50 on human 15-LO came to 116 nM.
As for `COc1ccc(-c2cc3cc(F)c(F)cc3[nH]2)cc1NS(C)(=O)=O` [Example 7, N-[5-(5,6-Difluoro-1H-indol-2-yl)-2-methoxy-phenyl]-methanesulfonamide], the melting point was in the range of 254 to 256 °C. Moreover, half-maximal inhibition in series [1] (IC50) required 10 nM. The half-maximal inhibitory concentration (IC50) on human 15-LO came out at 19 nM.
For `COC(=O)c1ccc(CNc2cc(-c3cc4cc(F)c(F)cc4[nH]3)ccc2OC)cc1` [Example 14, 4-{[5-(5,6-Difluoro-1H-indol-2-yl)-2-methoxy-phenylamino]-methyl}-benzoic acid methyl ester], in that order: 168 to 170 °C, 113 nM and 1260 nM.
For `CCOP(=O)(Cc1ccc(NC(=S)Nc2cc(-c3cc4cc(F)c(F)cc4[nH]3)ccc2OC)cc1)OCC` [Example 24, (4-{3-[5-(5,6-Difluoro-1H-indol-2-yl)-2-methoxy-phenyl]-thioureido}-benzyl)-phosphonic acid diethyl ester], in that order: 180 to 182 °C, 18 nM and 91 nM.
In turn, `COc1ccc(-c2cc3cc(F)c(F)cc3[nH]2)cc1NC(=S)Nc1cc(Cl)cc(Cl)c1` [Example 4, 1-(3,5-Dichloro-phenyl)-3-[5-(5,6-difluoro-1H-indol-2-yl)-2-methoxy-phenyl]-thiourea] registered a melting point of 203 to 205 °C. For the same compound, half-maximal inhibition in series [1] (IC50) was put at 30 nM. The half-maximal inhibitory concentration (IC50) at human 15-LO came out at 60 nM.
Take `COc1ccc(-c2cc3cc(F)c(F)cc3[nH]2)cc1NC(=S)NCCNC(=O)OC(C)(C)C` [Example 38, (2-{3-[5-(5,6-Difluoro-1H-indol-2-yl)-2-methoxy-phenyl]-thioureido}-ethyl)-carbamic acid tert-butyl ester]: the melting point lay in the range of 110 to 113 °C. This compound also had a half-inhibitory concentration (IC50) in series [1] of 19 nM. On human 15-LO, this compound had a half-inhibitory concentration (IC50) of 25 nM.
For the compound `COc1ccc(-c2cc3cc(F)c(F)cc3[nH]2)cc1NC(=S)Nc1cccc(C(=O)O)c1` [Example 6, 3-{3-[5-(5,6-Difluoro-1H-indol-2-yl)-2-methoxy-phenyl]-thioureido}-benzoic acid], the melting point is 221 to 223 °C. Moreover, the IC50 in series [1] was 2 nM. The compound also came in with a half-maximal inhibitory concentration (IC50) on human 15-LO of 25 nM.
`COc1ccc(-c2cc3cc(F)c(F)cc3[nH]2)cc1NS(=O)(=O)c1cc(Cl)cc(Cl)c1` [Example 8, 3,5-Dichloro-N-[5-(5,6-difluoro-1H-indol-2-yl)-2-methoxy-phenyl]-benzenesulfonamide] came in with a melting point of 217 to 219 °C. Also, in series [1], the half-maximal inhibitory concentration (IC50) amounted to 19 nM. At human 15-LO, the 50% inhibitory concentration (IC50) turned out to be 73 nM.
`COc1ccc(-c2cc3cc(F)c(F)cc3[nH]2)cc1NCc1cccs1` [Example 12, [5-(5,6-Difluoro-1H-indol-2-yl)-2-methoxy-phenyl]-thiophen-2-ylmethyl-amine] had a melting point of 190 to 192 °C. This compound showed a half-inhibitory concentration (IC50) in series [1] of 45 nM. Further, the IC50 at human 15-LO was 461 nM.
The like results for `COc1ccc(CNc2cc(-c3cc4cc(F)c(F)cc4[nH]3)ccc2OC)cc1` [Example 13, [5-(5,6-Difluoro-1H-indol-2-yl)-2-methoxy-phenyl]-(4-methoxy-benzyl)-amine] were, in that order, 173 to 175 °C, 40 nM and 414 nM.
The compound `COc1ccc(-c2cc3cc(F)c(F)cc3[nH]2)cc1NS(=O)(=O)c1cccs1` [Example 9, Thiophene-2-sulfonic acid [5-(5,6-difluoro-1H-indol-2-yl)-2-methoxy-phenyl]-amide] came in with a melting point of 211 to 213 °C. Moreover, the IC50 in series [1] stood at 40 nM. Half-maximal inhibition against human 15-LO (IC50) required 7 nM.
The like results for `COc1ccc(-c2cc3cc(F)c(F)cc3[nH]2)cc1NC(=S)Nc1cccnc1` [Example 41, 1-[5-(5,6-Difluoro-1H-indol-2-yl)-2-methoxy-phenyl]-3-pyridin-3-yl-thiourea] were, in that order, 128 to 130 °C, 5 nM and 10 nM.
